# Results: patent EP0637448A1, “Combinations of glycinamide or N-acetylglycinamide with analgesic compounds” (ISCOFAR SAS DI PAOLO E. GHIRARDI, priority 1993, dated 1995)
# Like-named read-outs stand apart in the source and are kept apart here.
# Key:
# EDEMA FROM CARRAGEENIN = experiment: carrageenin edema test; format: in vivo, mouse; conditions: for ED50: NSAID alone, per os 60 minutes before carrageenin, edema volume after 3 hours, read-out: ED₅₀ ± S.D. (dose reducing edema by 50%)
# [1] = system: phenylquinone induced writhing; experiment: writhing test (phenylquinone-induced abdominal contractions); format: in vivo, mouse; conditions: for time of maximum effect after administration: ED50 dose given orally, effect as a function of time; for ED50: Mus musculus, read-out: ED₅₀ ± D.5 (anti-writhing action)
# Method: In order to experimentally test the above analgesic effect, which involves the µ and K type opiate receptors, the writhing test (literally: "induced abdominal contracture test") with […] of phenylquinone or paraphenylbenzoquinone (0.02% in 5% ethanol), has been choosed. Since phenylquinone is a photosensitive, said solution was kept dark bottle at 37 °C with continuous stirring. Groups of animals were treated orally with different doses of glycinamide at various time intervals before phenylquinone being administered by intraperitoneal way. For each experimental point 3 groups of 10 animals each were tested. After the phenylquinone administration, the animals were placed in glass cylinders and the abdominal contractions were recorded for 20 minutes starting form the fifth minute following the intraperitoneal administration of phenylquinone. As an average, about 50±15 abdominal contractions were recorded during the surveying time. The choice of phenylquinone as the writhing inductor is justified by the greater qualitative constance and higher number of contractions obtainable when compared with other inductors such as acetylcholine, acetic acid, ethacrynic acid, air, etc. [table]
# mouse = experiment: acute oral toxicity (LD50); format: in vivo; conditions: orally
# [2] = acute oral toxicity (LD50); format: in vivo; conditions: in vivo, po; mouse, orally; read-out: LD₅₀
# [3] = substance alone, orally, mouse, phenylquinone 2 mg/kg i.p.
smiles,measurement,setting,value
CC(=O)Oc1ccccc1C(=O)O [Acetylsalicylic acid],ED50,EDEMA FROM CARRAGEENIN; mouse,5.1 ± 0.8 mg/kg
NCC(N)=O [Glycinamide],enhancement of the antiphlogistic and visceral peripheral analgesic effect of sodium diclofenac,"[1]; 25 mg/kg of glycinamide, based on writhing test",at least 2.5 times
same,time of maximum effect after administration,[1]; mouse,about 13 minutes
same,ED50,[1]; [3],~82.9 mg/kg
same,"reduction (anti-writhing action, peak)","[1]; orally administered dose of 200 mg/kg, mouse",81.3%
same,enhancement of the effect of sodium diclofenac,"EDEMA FROM CARRAGEENIN; 50 mg/kg of glycinamide, based on the carrageenin edema test",at least 2.8 times
same,anti-edema effect,"EDEMA FROM CARRAGEENIN; glycinamide alone, 50 mg/kg orally 50 minutes before carrageenin, mouse",does not develop an anti-edema effect
same,LD₅₀,mouse,higher than 2 g/Kg
CC(C)Cc1ccc(C(C)C(=O)O)cc1 (stereo not drawn) [Ibuprofen],ED50,EDEMA FROM CARRAGEENIN; mouse,20 ± 2.4 mg/kg
COc1ccc2c(c1)c(CC(=O)O)c(C)n2C(=O)c1ccc(Cl)cc1 [Indomethacin],ED50,EDEMA FROM CARRAGEENIN; mouse,84 ± 12 mg/kg
CC(=O)NCC(N)=O [N-acetylglycinamide],peripheral analgesic activity compared with glycinamide,"[1]; mouse, in vivo",shared both qualitatively and quantitatively
same,LD50,[2],> 2000 mg/kg
O=C(O)Cc1ccccc1Nc1c(Cl)cccc1Cl [Sodium diclofenac],time of maximum effect after administration,[1]; mouse,45 min
same,ED50,"[1]; + Glycinamide HCl 15 mg/kg orally 13 minutes before testing, mouse",1.86 ± 1.15 mg/kg
same,ED50,"[1]; + Glycinamide HCl 25 mg/kg orally 13 minutes before testing, mouse",1.12 ± 1.2 mg/kg
same,ED50,"[1]; + Glycinamide HCl 50 mg/kg orally 13 minutes before testing, mouse",1.05 ± 1.31 mg/kg
same,ED50,"[1]; + Glycinamide HCl 75 mg/kg orally 13 minutes before testing, mouse",1.02 ± 1.26 mg/kg
same,ED50,"[1]; + Glycinamide HCl 100 mg/kg orally 13 minutes before testing, mouse",1.28 ± 1.16 mg/kg
same,ED50,[1]; [3],2.93 ± 1.43 mg/kg
same,ED50,EDEMA FROM CARRAGEENIN; mouse,10 ± 3.6 mg/kg
NCC(=O)O [glycine],enhancement of the action of peripheral analgesic drugs,[1]; test not given,does not produce
